Patent US20080249075A1, “C11 Modified Retrosteroids as Progesterone Receptor Modulator Compounds” (Solvay Pharmaceuticals GmbH, priority 2007, published 2008)

System: T47D human breast carcinoma cells
Experiment: cells
Format: cell-based
Settings: for PS [100 nM] (% stimulation): agonistic mode, alkaline phosphatase induction (100% = 1 nM Dydrogesterone); for PS [100 nM] (% stimulation) / PI [100 nM] (% inhibition): compound 100 nM; for PI [100 nM] (% inhibition): antagonistic mode, inhibition of alkaline phosphatase induction by 1 nM Dydrogesterone; for activation at 0.1 µM / inhibition at 0.1 µM / EC50 / IC50: Homo sapiens, T47D; for activation at 0.1 µM: 48 h, read-out: PS [100 nM] (% stimulation); for inhibition at 0.1 µM: read-out: PI [100 nM] (% inhibition); for EC50: read-out: pEC50 (converted); for IC50: read-out: pIC50 (converted); for pIC50: antagonistic potency against 1 nM Dydrogesterone
Method: The progesterone-dependent modulation of alkaline phosphatase expression was examined using T47D human breast carcinoma cells [Keydar et al., 1979]. The assay was performed as previously described by Di Lorenzo et al. (1991) with the modification of using Dydrogesterone as comparative progestin to determine the antagonistic and agonistic activity.
The cell line was purchased from CLS Cell Lines Service (Hildastrasse 21, D-69214 Eppelheim, Germany). In brief, the cells were plated in 96-well plates at 40,000 cells/well using the following growth medium: RPMI 1640 with: 10% FBS, 1 mM Sodium Pyruvat MEM, 10 mM Hepes, 0.01 mg/ml Bovine insulin, and 25 μg/ml Gentamycin. After 24 h of cultivation, the growth medium was replaced with medium containing 2% fetal bovine serum and the test compounds were added to each well to achieve the appropriate compound concentration: For determination of agonistic activity only the test compounds were added; for measurement of antagonistic activity the test compounds and additionally Dydrogesterone as standard progesterone agonist was added to a final concentration of 1 nM. After 48 h of cultivation, the medium was removed and the cells were washed with 200 μl of Dulbecco's phosphate-buffered saline without calcium and magnesium (PBS(−)). Then the cells were fixed with 3.7% formaldehyde in phosphate-buffered saline for 15 min at 22° C. After washing the cells with PBS, 100 μl of a […] (pNPP) solution (pNPP Liquid Substrate System; Sigma) was added to each well and incubated for 2 h at room temperature protected from light. The reaction was stopped with 100 μl 1N NaOH and the absorbance was measured with a spectrophotometer (Victor, Perkin Elmer) at 405 nm. The results are expressed as alkaline phosphatase induction (as 100% with 1 nM Dydrogesterone) or inhibition (against alkaline phosphatase induction by 1 nM Dydrogesterone) at a certain concentration of test compound.
% stimulation=(effect compound−basal)/(effect dydro 1 nM−basal)*100% inhibition of 1 nM Dydro=100*{1-[(effect compound−basal)/(effect dydro 1 nM−basal)]}
For each compound the % inhibition (PI) and % stimulation (PS), respectively, at a compound concentration of 100 nM was determined. For selected compounds, the corresponding values were measured for several different concentrations, and subsequently were plotted against the concentration of the test compound, and used to calculate the IC50 value (for the antagonistic potency; the IC50 value is the concentration (nM), required to reduce the maximal response by 50%) and EC50 values (for the agonistic potency; the EC50 value is the effective concentration (nM) that produced 50% of the maximum response), respectively.

| Structure (SMILES) | PS [100 nM] (% stimulation) (T47D cells) | pEC50 (agonistic potency, T47D cells) | PI [100 nM] (% inhibition) (T47D cells) | activation at 0.1 µM | inhibition at 0.1 µM | EC50 | IC50 | pIC50 (T47D cells) |
| --- | --- | --- | --- | --- | --- | --- | --- | --- |
| CC(=O)[C@H]1CC[C@H]2[C@@H]3C=CC4=CC(=O)CC[C@@]4(C)[C@@H]3C(OC(=O)Nc3cccc(OC(F)(F)F)c3)C[C@]12C (some centres unmarked) [compound 74, (3-Trifluoromethoxy-phenyl)-carbamic acid dydrogesterone-11-yl ester] | 89.0% | 6.3 | −23.0% |  |  |  |  |  |
| COc1ccc(C(=O)O[C@H]2C[C@]3(C)[C@@H](C(C)=O)CC[C@H]3[C@@H]3C=CC4=CC(=O)CC[C@@]4(C)[C@@H]32)cc1 [Compound No. 22, 4-Methoxy-benzoic acid dydrogesterone-11β-yl ester] |  |  |  | 29% | 55% | 12.6 nM | 20 nM |  |
| CC(=O)[C@H]1CC[C@H]2[C@@H]3C=CC4=CC(=O)CC[C@@]4(C)[C@@H]3C(OC(=O)Nc3cccc(N4CCCC4=O)c3)C[C@]12C (some centres unmarked) [compound 100, [3-(2-Oxo-pyrrolidin-1-yl)-phenyl]-carbamic aciddydrogesterone-11-yl ester] | 1.0% |  | 45.0% |  |  |  |  | 6.6 |
| CC(=O)[C@H]1CC[C@H]2[C@@H]3C=CC4=CC(=O)CC[C@@]4(C)[C@@H]3C(OC(=O)Nc3ccc4c(c3)S(=O)(=O)C=C4)C[C@]12C (some centres unmarked) [compound 98, (1,1-Dioxo-1H-1lambda*6*-benzo[b]thiophen-6-yl)-carbamicacid dydrogesterone-11-yl ester] | 1.0% |  | 61.0% |  |  |  |  | 7.0 |
| CCO[C@]1(C(C)=O)CC[C@H]2[C@@H]3C=CC4=CC(=O)CC[C@@]4(C)[C@@H]3[C@@H](OC(=O)Nc3cccc(OC)c3)C[C@@]21C [Compound No. 12, (3-Methoxy-phenyl)-carbamic acid 17-ethoxy-dydrogesterone-11β-yl ester] |  |  |  | 23% | 72% |  | 6.31 nM |  |
| CC(=O)[C@H]1CC[C@H]2[C@@H]3C=CC4=CC(=O)CC[C@@]4(C)[C@@H]3C(OC(=O)Nc3ccc(OC(F)F)cc3)C[C@]12C (some centres unmarked) [compound 75, (4-Difluoromethoxy-phenyl)-carbamic acid dydrogesterone-11-yl ester] | 0.0% |  | 59.0% |  |  |  |  | 6.9 |
| CCO[C@]1(C(C)=O)CC[C@H]2[C@@H]3C=CC4=CC(=O)CC[C@@]4(C)[C@@H]3[C@@H](OC(=O)c3ccccc3)C[C@@]21C [Compound No. 23, Benzoic acid 17-ethoxy-dydrogesterone-11β-yl ester] |  |  |  | 16% | 69% |  | 15.8 nM |  |
| CC(=O)[C@H]1CC[C@H]2[C@@H]3C=CC4=CC(=O)CC[C@@]4(C)[C@@H]3[C@@H](OC(=O)NC(C)C)C[C@]12C [Compound No. 1, Dydrogesterone-11β-yl isopropylcarbamate] |  |  |  | -3% | 46% |  | 158 nM |  |
| CC(=O)[C@H]1CC[C@H]2[C@@H]3C=CC4=CC(=O)CC[C@@]4(C)[C@@H]3C(OC(=O)Nc3ccc(C)c(Br)c3)C[C@]12C (some centres unmarked) [compound 76, (3-Bromo-4-methyl-phenyl)-carbamic acid dydrogesterone-11-yl ester] | 4.0% |  | 67.0% |  |  |  |  | 7.3 |
| CC(=O)Nc1cccc(NC(=O)OC2C[C@]3(C)[C@@H](C(C)=O)CC[C@H]3[C@@H]3C=CC4=CC(=O)CC[C@@]4(C)[C@H]23)c1 (some centres unmarked) [compound 95, (3-Acetylamino-phenyl)-carbamicacid dydrogesterone-11-yl ester] | 1.0% |  | 50.0% |  |  |  |  | 6.8 |
| COc1ccc(NC(=O)O[C@H]2C[C@]3(C)[C@@H](C(C)=O)CC[C@H]3[C@@H]3C=CC4=CC(=O)CC[C@@]4(C)[C@@H]32)cc1 [Compound No. 11, (4-Methoxy-phenyl)-carbamic acid dydrogesterone-11β-yl ester] |  |  |  | 0% | 39% |  |  |  |
| CC(=O)[C@H]1CC[C@H]2[C@@H]3C=CC4=CC(=O)CC[C@@]4(C)[C@@H]3[C@@H](OC(=O)Nc3cccc(C(N)=O)c3)C[C@]12C [Compound No. 14, (3-Carbamoyl-phenyl)-carbamic acid dydrogesterone-11β-yl ester] |  |  |  | -1% | 38% |  | 50.1 nM |  |
| CSc1ccc(NC(=O)OC2C[C@]3(C)[C@@H](C(C)=O)CC[C@H]3[C@@H]3C=CC4=CC(=O)CC[C@@]4(C)[C@H]23)cc1 (some centres unmarked) [compound 94, (4-Methylsulfanyl-phenyl)-carbamic acid dydrogesterone-11-yl ester] | 1.0% |  | 61.0% |  |  |  |  | 7.0 |
| CCNC(=O)O/N=C/c1cccc(NC(=O)O[C@H]2C[C@]3(C)[C@@H](C(C)=O)CC[C@H]3[C@@H]3C=CC4=CC(=O)CC[C@@]4(C)[C@@H]32)c1 [Compound No. 33, [3-(N-Ethylcarbamoyl-oximino-formyl)-phenyl]-carbamic acid dydrogesterone-11β-yl ester] |  |  |  | 56% | -29% | 200 nM |  |  |
| CC(=O)[C@H]1CC[C@H]2[C@@H]3C=CC4=CC(=O)CC[C@@]4(C)[C@@H]3C(OC(=O)Nc3ccc4cc[nH]c4c3)C[C@]12C (some centres unmarked) [compound 88, (1H-Indol-6-yl)-carbamic aciddydrogesterone-11-yl ester] | 0.0% |  | 48.0% |  |  |  |  |  |
| CC(=O)[C@H]1CC[C@H]2[C@@H]3C=CC4=CC(=O)CC[C@@]4(C)[C@@H]3C(OC(=O)Nc3cccc(-n4cccc4)c3)C[C@]12C (some centres unmarked) [compound 103, (3-Pyrrol-1-yl-phenyl)-carbamicacid dydrogesterone-11-yl ester] | 21.0% |  | 52.0% |  |  |  |  | 7.2 |
| COc1cc(NC(=O)OC2C[C@]3(C)[C@@H](C(C)=O)CC[C@H]3[C@@H]3C=CC4=CC(=O)CC[C@@]4(C)[C@H]23)cc(-n2cnnn2)c1 (some centres unmarked) [compound 104, (3-Methoxy-5-tetrazol-1-yl-phenyl)-carbamic aciddydrogesterone-11-yl ester] | 1.0% |  | 45.0% |  |  |  |  | 6.9 |
| CC(=O)[C@H]1CC[C@H]2[C@@H]3C=CC4=CC(=O)CC[C@@]4(C)[C@@H]3C(OC(=O)Nc3ccc4c(c3)OCCO4)C[C@]12C (some centres unmarked) [compound 70, (2,3-Dihydro-benzo[1,4]dioxin-6-yl)-carbamic aciddydrogesterone-11-yl ester] | 1.0% |  | 44.0% |  |  |  |  | 6.9 |
| CC(=O)[C@H]1CC[C@H]2[C@@H]3C=CC4=CC(=O)CC[C@]4(C)[C@H]3C(OC(=O)Nc3ccc4ncccc4c3)C[C@]12C (some centres unmarked) [compound 69, Quinolin-6-yl-carbamic aciddydrogesterone-11-yl ester] | 4.0% |  | 41.0% |  |  |  |  | 7.2 |
| COc1cccc(NC(=O)O[C@H]2C[C@]3(C)[C@@H](C(C)=O)CC[C@H]3[C@@H]3C=CC4=CC(=O)CC[C@@]4(C)[C@@H]32)c1 [Compound No. 15, (3-Methoxy-phenyl)-carbamic acid dydrogesterone-11β-yl ester] |  |  |  | -3% | 43% |  | 126 nM |  |
